# Measured values as given in US10966976B2, “Methods for inducing an immune response by inhibition of nonsense mediated decay” (MOONSHOT PHARMA LLC, priority 2015, dated 2021).
# Assays:
# MC38 tumor cells = assay: MC38 subcutaneous syngeneic tumor model, tumor volume by caliper; format: in vivo, C57BL/6 mice; set-up: Percent inhibition of tumor volume: concentration or dose not given beside the values; conditions: for Percent inhibition of tumor volume: vs vehicle group, negative values indicate an increase in tumor volume
# Protocol: This Example evaluated the effectiveness of an NMDI alone and in combination with one or more immunotherapy agents for the treatment of tumor-bearing C57BL/6 mice.
# Animals: Female 6-8 week old (estimated age at inoculation) C57BL/6 mice were obtained from Shanghai Lingchang Bio-Technology Co. Ltd (LC, Shanghai, China). The animals were housed at 20-26° C. with a 12 hours light and 12 hours darkness cycle.
# Cell Culture: MC38 tumor cells were maintained in vitro as a monolayer culture in DMEM medium supplemented with 10% fetal bovine serum at 37° C. in an atmosphere of 5% CO2 in air. The tumor cells were routinely subcultured twice weekly. Cells in an exponential growth phase were harvested and counted for tumor inoculation.
# Therapeutic compounds: Anti-PD-1 and anti-CTLA-4 antibodies were obtained from BioXCell as was an anti-CD8 antibody. The nonsense mediated decay inhibitor NMDI14 (4,5-Dimethyl-2-[[2-(1,2,3,4-tetrahydro-6,7-dimethyl-3-oxo-2-quinoxalinyl)acetyl]amino]-3-thiophenecarboxylic acid ethyl ester, Ethyl 2-{[(6,7-dimethyl-3-oxo-1,2,3,4-tetrahydro-2-quinoxalinyl)acetyl]amino}-4,5-dimethyl-3-thiophenecarboxylate) was obtained from ChemBridge Corp. (La Jolla, Calif.).
# Tumor Inoculation: Each mouse was inoculated subcutaneously at the right lower flank region with MC38 tumor cells (1×10^6) in 0.1 mL of PBS for tumor development. The treatments were started when the mean tumor size reaches approximately 50 mm^3. The date of tumor cell inoculation was denoted as day 0.
# Group assignment: Before grouping and treatment, all animals were weighed and the tumor volumes measured using a caliper. Tumor volume was used as numeric parameter to randomize selected animals into specified groups in order to minimize systematic error. The grouping was performed by using StudyDirector™ software (Studylog Systems, Inc. CA, USA). One optimal randomization design (generated by Matched distribution) showing minimal group to group variation in tumor volume was selected for group allocation.
# After tumor cell inoculation, the animals were checked daily for morbidity and mortality as well as any effects of tumor growth and treatments on normal behavior such as mobility, visual estimation of food and water consumption, body weight gain/loss, eye/hair matting and any other abnormal effect. Tumor volumes were measured twice weekly at least in two dimensions using a caliper, and the volume expressed in mm^3 using the formula: V=0.5 a×b^2 where a and b are the long and short diameters of the tumor, respectively.
# [1] = tested on: CD3+ immune cells infiltrating tumor tissue; assay: Immunohistochemistry of sectioned tumor tissue, immune cell infiltration; format: in vivo, C57BL/6 mice; conditions: FFPE tumor sections; FIG. 4
# Protocol: Immunohistochemistry (IHC): Formalin-fixed paraffin-embedded (FFPE) tissue from tumor samples were sectioned to 4 urn. Antigen retrieval (AR) was conducted at 100° C., in EDTA buffer, at pH 9.0 for 20 min. Primary antibody (diluted with validated concentration), RT 60 min+ secondary antibody (ready-to-use), RT 60 min+Bond Polymer Refine Detection.
smiles,measurement,setting,value
"CCOC(=O)c1c(NC(=O)CC2Nc3cc(C)c(C)cc3NC2=O)sc(C)c1C (stereo not drawn) [NMDI14, 4,5-Dimethyl-2-[[2-(1,2,3,4-tetrahydro-6,7-dimethyl-3-oxo-2-quinoxalinyl)acetyl]amino]-3-thiophenecarboxylic acid ethyl ester]",Percent inhibition of tumor volume,MC38 tumor cells; Day 9,−0.11%
same,Mean tumor volume,"MC38 tumor cells; Day 9 after inoculation, MC38 tumor-bearing C57BL/6 mice, i.p., NMDI14 20 mg/kg QDx3 weeks, antibodies 10 mg/kg (anti-CD8 200 ug/mouse) BIW x 3 weeks, n=8",52.02 mm^3
same,Mean tumor volume,"MC38 tumor cells; Day 12, same model and dosing (Table 2)",72.22 mm^3
same,Percent inhibition of tumor volume,MC38 tumor cells; Day 12,14.08%
same,Mean tumor volume,"MC38 tumor cells; Day 15, same model and dosing (Table 2)",135.90 mm^3
same,Percent inhibition of tumor volume,MC38 tumor cells; Day 15,−4.42%
same,Mean tumor volume,"MC38 tumor cells; Day 18, same model and dosing (Table 2)",270.73 mm^3
same,Percent inhibition of tumor volume,MC38 tumor cells; Day 18,6.19%
same,Mean tumor volume,"MC38 tumor cells; Day 22, same model and dosing (Table 2)",405.71 mm^3
same,Percent inhibition of tumor volume,MC38 tumor cells; Day 22,15.14%
same,Mean tumor volume,"MC38 tumor cells; Day 25, same model and dosing (Table 2)",644.91 mm^3
same,Percent inhibition of tumor volume,MC38 tumor cells; Day 25,19.44%
same,Mean tumor volume,"MC38 tumor cells; Day 29, same model and dosing (Table 2)",999.58 mm^3
same,Percent inhibition of tumor volume,MC38 tumor cells; Day 29,20.58%
same,Mean tumor volume,"MC38 tumor cells; Day 32, same model and dosing (Table 2)",1395.65 mm^3
same,Percent inhibition of tumor volume,MC38 tumor cells; Day 32,21.74%
same,Tumor inhibition (in words),"MC38 tumor cells; MC38 tumor-bearing C57BL/6 mice, Table 6, FIG. 1-3",tumor inhibition-promoting properties
same,"CD3+ immune cell infiltration of tumor tissue (IHC, in words)",[1],significant numbers of CD3+ immune cells infiltrating tumor tissue
